Publication PMC12823440, “Inhibitors supercharge kinase turnover through native proteolytic circuits” (Nature, 2025)

What was measured:
Assay in all cases: biochemical
ABL1 = ABL1 (Homo sapiens, UniProt P00519)
ABL2 = ABL2 (Homo sapiens, UniProt P42684)
BTK = BTK (Homo sapiens, UniProt Q06187)
MAP4K3 = biological target: T1, MAP4K3 (Homo sapiens, UniProt Q8IVH8)
T1 sequence (Q8IVH8 1-894): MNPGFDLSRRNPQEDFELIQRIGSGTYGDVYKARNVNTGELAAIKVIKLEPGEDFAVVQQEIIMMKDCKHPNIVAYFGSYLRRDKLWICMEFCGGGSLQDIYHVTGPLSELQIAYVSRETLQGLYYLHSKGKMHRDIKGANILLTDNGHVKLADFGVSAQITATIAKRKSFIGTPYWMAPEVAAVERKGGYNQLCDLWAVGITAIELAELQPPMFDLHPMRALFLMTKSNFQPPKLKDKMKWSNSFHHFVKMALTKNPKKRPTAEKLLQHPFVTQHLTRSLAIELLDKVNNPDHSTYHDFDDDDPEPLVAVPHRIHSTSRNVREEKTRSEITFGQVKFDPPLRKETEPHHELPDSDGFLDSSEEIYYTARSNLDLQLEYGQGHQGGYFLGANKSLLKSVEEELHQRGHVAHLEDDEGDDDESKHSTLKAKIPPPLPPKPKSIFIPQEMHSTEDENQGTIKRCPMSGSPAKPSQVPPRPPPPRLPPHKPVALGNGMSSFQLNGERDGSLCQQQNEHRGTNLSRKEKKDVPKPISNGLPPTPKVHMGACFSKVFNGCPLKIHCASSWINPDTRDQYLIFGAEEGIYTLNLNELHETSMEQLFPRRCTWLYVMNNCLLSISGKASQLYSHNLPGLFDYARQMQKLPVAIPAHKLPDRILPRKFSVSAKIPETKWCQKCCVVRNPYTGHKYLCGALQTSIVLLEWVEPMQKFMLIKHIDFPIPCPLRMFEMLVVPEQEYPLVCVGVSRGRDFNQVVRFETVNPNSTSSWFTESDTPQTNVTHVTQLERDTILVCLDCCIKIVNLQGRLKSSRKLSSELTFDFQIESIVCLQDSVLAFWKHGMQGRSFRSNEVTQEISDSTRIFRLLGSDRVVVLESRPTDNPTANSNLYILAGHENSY

Sequence of ABL1 (P00519 whole entry): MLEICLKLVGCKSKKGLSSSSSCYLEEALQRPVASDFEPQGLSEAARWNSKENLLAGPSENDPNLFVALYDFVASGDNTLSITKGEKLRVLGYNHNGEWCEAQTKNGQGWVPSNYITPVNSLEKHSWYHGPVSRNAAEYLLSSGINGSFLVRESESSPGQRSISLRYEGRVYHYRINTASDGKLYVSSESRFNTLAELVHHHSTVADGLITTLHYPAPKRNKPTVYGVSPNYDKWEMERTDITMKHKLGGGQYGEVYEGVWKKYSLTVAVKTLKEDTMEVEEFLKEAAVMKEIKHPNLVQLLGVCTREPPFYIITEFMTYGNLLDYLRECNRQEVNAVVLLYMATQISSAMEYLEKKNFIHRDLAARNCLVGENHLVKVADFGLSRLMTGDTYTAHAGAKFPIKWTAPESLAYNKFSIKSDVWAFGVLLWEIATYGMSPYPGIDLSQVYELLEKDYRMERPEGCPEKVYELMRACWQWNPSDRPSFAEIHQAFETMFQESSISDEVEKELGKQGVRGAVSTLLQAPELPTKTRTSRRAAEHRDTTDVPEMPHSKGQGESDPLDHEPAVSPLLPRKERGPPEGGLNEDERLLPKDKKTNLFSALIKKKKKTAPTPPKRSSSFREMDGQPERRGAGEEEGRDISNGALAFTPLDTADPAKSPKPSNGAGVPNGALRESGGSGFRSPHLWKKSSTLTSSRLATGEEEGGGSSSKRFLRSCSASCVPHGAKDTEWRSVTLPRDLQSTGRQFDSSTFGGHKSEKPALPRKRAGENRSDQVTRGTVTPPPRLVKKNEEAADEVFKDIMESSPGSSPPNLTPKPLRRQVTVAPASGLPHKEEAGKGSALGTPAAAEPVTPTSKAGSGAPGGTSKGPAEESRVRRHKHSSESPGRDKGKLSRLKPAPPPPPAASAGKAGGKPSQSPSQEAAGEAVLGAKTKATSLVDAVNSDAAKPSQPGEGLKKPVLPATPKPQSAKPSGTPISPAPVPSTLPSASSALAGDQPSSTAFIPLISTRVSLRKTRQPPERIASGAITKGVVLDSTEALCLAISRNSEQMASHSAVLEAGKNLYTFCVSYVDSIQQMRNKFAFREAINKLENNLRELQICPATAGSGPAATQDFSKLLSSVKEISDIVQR
Sequence of BTK (Q06187 whole entry): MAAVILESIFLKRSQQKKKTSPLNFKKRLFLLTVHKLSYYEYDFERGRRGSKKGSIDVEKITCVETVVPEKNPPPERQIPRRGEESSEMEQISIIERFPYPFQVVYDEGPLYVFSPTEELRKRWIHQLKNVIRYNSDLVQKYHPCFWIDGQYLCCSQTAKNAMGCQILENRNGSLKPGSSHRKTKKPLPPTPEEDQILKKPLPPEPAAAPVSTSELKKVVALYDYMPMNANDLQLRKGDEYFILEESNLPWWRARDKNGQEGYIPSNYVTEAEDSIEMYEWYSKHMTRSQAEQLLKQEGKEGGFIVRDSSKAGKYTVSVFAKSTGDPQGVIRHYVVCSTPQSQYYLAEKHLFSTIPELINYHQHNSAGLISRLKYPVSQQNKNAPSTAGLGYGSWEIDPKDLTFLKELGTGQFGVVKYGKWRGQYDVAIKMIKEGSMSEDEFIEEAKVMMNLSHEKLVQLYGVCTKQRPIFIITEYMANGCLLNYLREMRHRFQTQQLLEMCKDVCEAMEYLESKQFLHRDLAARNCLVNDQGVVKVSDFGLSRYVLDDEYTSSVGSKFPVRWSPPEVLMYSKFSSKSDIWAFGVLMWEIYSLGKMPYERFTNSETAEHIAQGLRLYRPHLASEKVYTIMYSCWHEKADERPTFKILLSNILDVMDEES
Sequence of ABL2 (P42684 whole entry): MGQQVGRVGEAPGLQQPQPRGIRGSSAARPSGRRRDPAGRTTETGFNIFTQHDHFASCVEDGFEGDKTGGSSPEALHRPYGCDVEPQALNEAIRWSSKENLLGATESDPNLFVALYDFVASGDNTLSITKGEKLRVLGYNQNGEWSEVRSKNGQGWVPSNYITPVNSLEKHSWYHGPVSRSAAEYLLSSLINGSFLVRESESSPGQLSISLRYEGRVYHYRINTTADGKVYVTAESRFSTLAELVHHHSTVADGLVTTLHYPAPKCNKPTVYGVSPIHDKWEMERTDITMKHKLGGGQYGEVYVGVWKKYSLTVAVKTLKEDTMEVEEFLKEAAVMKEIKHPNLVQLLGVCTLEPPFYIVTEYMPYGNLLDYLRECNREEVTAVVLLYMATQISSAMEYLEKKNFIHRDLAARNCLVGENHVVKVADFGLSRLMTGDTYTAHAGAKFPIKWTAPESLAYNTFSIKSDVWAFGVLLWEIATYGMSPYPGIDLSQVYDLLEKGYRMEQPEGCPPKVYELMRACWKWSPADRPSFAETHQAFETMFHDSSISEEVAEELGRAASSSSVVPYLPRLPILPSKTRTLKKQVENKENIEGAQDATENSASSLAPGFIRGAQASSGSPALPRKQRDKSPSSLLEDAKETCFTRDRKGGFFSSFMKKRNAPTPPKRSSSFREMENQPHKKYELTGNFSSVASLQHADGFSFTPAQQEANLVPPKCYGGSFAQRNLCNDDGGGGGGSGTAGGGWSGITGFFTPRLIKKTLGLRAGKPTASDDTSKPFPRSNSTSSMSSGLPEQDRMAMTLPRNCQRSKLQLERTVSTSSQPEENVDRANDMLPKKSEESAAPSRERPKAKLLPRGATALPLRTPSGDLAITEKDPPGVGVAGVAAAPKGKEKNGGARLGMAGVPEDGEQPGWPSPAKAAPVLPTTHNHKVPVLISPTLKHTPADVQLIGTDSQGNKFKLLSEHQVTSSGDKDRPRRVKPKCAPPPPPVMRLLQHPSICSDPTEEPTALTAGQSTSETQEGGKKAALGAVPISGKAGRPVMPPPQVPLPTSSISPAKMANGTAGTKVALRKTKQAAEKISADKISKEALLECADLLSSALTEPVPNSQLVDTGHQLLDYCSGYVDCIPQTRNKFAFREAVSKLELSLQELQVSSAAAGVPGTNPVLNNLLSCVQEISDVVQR

COc1ccc2c(C(=O)Nc3ccc(NC(=O)c4nn(C5CCN(C(=O)CC(C)(C)C#N)CC5)c5ccc(F)cc45)cc3Cl)cnn2c1 [SI-3]
Kd (ABL1): 353 nM
Kd (ABL2): 40.2 nM
Kd (BTK): 3080 nM
Kd (MAP4K3): 9700 nM
